Measurements published in patent US8440819B2, “Therapeutic substituted beta-lactams” (Allergan, Inc., priority 2008, dated 2013).

Key:
[1] = target: T1, hEP3A (Homo sapiens, UniProt P43115); experiment: Other receptors functional EC50, hEP3A; type: cell-based
T1 sequence (P43115 1-390): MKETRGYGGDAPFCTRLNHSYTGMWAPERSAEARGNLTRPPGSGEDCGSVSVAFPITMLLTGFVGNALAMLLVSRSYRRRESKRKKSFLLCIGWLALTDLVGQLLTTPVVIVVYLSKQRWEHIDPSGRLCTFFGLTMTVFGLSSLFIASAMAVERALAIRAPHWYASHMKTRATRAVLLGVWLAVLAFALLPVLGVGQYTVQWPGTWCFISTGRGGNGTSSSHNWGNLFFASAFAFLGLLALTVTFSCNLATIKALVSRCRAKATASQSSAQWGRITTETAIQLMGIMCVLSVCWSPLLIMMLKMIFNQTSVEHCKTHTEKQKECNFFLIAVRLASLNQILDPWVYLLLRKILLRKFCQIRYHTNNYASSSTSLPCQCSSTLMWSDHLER
Text: (§1) U.S. patent application Ser. No. 11/553,143, filed on Oct. 26, 2006, incorporated by reference herein, describes the methods used to obtain the in vitro data in Table 1 below.

[2] = target: T2, EP2 (Homo sapiens, UniProt P43116); experiment: EP2 binding (Ki)
Text: as §1

[3] = target: T2, EP2; experiment: EP2 flipr; type: cell-based
Text: as §1

[4] = target: T3, EP4 (Homo sapiens, UniProt P35408); experiment: EP4 binding (Ki); settings: read-out: EP4 data Kl
Text: as §1

[5] = target: T3, EP4; experiment: EP4 flipr; type: cell-based
Text: as §1

[6] = target: T4, hDP (Homo sapiens, UniProt Q13258); experiment: Other receptors functional EC50, hDP; type: cell-based
T4 sequence (Q13258 1-359): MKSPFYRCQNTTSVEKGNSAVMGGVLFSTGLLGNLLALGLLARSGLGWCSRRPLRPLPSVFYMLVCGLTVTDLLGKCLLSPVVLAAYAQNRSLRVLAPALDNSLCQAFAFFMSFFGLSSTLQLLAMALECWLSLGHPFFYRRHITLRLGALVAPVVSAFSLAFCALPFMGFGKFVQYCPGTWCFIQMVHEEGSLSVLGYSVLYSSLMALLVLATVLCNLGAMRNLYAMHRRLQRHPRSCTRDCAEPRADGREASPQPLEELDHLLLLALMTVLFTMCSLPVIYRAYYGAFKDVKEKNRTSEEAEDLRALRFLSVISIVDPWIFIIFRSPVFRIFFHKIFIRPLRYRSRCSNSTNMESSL
Text: as §1

[7] = target: T2, EP2; experiment: EP2 cAMP; type: cell-based
Text: as §1

[8] = tested on: laser-induced hypertensive monkeys; experiment: Intraocular pressure in laser-induced hypertensive monkeys; type: in vivo, monkey; settings: 0.01%, one single day dose, at 24 h
Protocol: (§2) U.S. Pat. No. 7,091,231 describes the methods used to carry out the tests reported below.
(§3) Isopropyl (5-(3-((2S)-1-(4-(1-hydroxyhexyl)phenyl)-4-oxoazetidin-2-yl)propyl)thiophene-2-carboxylate (12) was tested in normotensive dogs at 0.01%, dosing once daily for 5 days. The maximum intraocular pressure (IOP) decrease from baseline was 3.7 mmHg (25%) at 6 h; the maximum ocular surface hyperemia (OSH) score was 1.7 at 50 h. This compound was also tested in laser-induced hypertensive monkeys, using one single day dose. At 0.01%, the maximum IOP decrease from baseline was 12.6 mmHg (35%) at 24 h.

[9] = tested on: normotensive dogs; experiment: Intraocular pressure and ocular surface hyperemia in normotensive dogs; type: in vivo, dog; settings: 0.01%, once daily for 5 days
Protocol: as §2, §3

T2 sequence (P43116 whole entry): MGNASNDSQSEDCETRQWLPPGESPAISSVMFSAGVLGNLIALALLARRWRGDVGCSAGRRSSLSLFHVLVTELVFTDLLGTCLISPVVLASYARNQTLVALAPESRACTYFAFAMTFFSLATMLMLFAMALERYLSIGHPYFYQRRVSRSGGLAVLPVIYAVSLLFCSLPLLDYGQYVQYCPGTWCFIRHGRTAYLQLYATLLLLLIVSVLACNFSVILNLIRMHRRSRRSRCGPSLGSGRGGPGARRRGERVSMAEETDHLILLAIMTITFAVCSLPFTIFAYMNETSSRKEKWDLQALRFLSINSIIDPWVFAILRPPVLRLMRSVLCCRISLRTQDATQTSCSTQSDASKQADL
T3 sequence (P35408 whole entry): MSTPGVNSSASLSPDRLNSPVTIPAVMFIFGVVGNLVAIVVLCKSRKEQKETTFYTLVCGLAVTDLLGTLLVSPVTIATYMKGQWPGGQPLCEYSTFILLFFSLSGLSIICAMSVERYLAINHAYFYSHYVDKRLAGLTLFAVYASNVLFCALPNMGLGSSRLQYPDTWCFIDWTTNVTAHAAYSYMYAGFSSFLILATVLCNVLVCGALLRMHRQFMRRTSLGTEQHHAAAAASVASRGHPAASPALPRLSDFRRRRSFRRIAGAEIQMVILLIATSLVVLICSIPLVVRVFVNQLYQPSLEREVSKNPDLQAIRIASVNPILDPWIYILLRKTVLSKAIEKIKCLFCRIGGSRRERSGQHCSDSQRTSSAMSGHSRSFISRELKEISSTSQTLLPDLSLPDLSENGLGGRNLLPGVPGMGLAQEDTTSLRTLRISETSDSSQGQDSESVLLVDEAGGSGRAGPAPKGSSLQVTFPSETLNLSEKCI

Structure (SMILES) | EC50 [1] [nM] | Ki [2] [nM] | EC50 [3] [nM] | Ki [4] [nM] | EC50 [5] [nM] | EC50 [6] [nM] | EC50 [7] [nM] | maximum IOP decrease from baseline [8] [mmHg] | maximum IOP decrease from baseline, percent [8] [%] | maximum intraocular pressure (IOP) decrease from baseline ([9]; at 6 h) [mmHg] | maximum intraocular pressure (IOP) decrease from baseline, percent ([9]; at 6 h) [%] | maximum ocular surface hyperemia (OSH) score ([9]; at 50 h)
CCCCCC(O)c1ccc(N2C(=O)C[C@@H]2CCCc2ccc(C(=O)O)s2)cc1 (mixture of isomers) [compound 11] | 42 | 10 | 1.1 | 1450 | > 10000 | 4740 | 0.4 |  |  |  |  | 
CCCCCC(O)c1ccc(N2C(=O)C[C@@H]2CCCc2ccc(C(=O)OC(C)C)s2)cc1 (stereo partly drawn) [compound 12] |  |  |  |  |  |  |  | 12.6 | 35 | 3.7 | 25 | 1.7
